Ends that are not written are not given here.
Assays:
Rin-5F cells = assay: Anti-apoptotic efficacy, cycloheximid-induced apoptosis, AlamarBlue; type: cell-based, rat; details: 24 hours
Experimental: Apoptosis is induced in RIN-5F cells by addition of the protein biosynthesis inhibitor cycloheximid (CHX) in a final of 10 μg/ml and 100 μg/ml respectively.
40.000 Rin-5F cells were seeded per 96 well and cultivated for 2 days in RPMI supplemented with 1% L-Glutamin and 10% fetal calf serum. […] After 24 hours cell viability is quantified using AlamarBlue.

DPP-IV = biological target: T1, DPP-IV (Homo sapiens, UniProt P27487); assay: In vitro human plasma stability of GLP-1CM peptides; type: in vitro ADME; details: 20 ng/ml, 37° C., 5% CO2, 3 hours, in contrast to native GLP-1(7-37)
T1 construct: incubated at concentrations of 20 ng/ml with human plasma; from tissue; host or cells: human plasma
T1 sequence (P27487 whole entry): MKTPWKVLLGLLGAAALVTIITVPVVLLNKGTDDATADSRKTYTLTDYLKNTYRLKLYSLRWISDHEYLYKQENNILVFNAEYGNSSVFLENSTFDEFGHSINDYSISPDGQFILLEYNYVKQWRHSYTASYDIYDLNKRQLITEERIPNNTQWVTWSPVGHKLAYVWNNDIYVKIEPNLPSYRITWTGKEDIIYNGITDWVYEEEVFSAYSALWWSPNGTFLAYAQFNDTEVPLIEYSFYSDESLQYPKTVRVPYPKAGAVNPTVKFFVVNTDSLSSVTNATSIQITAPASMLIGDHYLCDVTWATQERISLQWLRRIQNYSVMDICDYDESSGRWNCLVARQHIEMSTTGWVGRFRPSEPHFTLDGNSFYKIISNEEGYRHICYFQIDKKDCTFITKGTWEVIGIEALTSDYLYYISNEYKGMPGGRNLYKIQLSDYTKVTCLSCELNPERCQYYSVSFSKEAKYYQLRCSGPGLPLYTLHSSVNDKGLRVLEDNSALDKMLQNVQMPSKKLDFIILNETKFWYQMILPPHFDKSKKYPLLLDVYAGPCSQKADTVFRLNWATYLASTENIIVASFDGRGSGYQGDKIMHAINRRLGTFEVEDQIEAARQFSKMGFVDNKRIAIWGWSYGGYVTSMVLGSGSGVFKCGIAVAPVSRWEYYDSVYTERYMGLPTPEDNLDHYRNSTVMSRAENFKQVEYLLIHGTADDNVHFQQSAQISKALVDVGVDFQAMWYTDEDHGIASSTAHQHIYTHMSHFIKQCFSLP
Experimental: Synthetic GLP-1 peptides (SEQ ID NO:1syn, SEQ ID SEQ ID NO:7rec, SEQ ID NO:8syn) were incubated at concentrations of 20 ng/ml with human plasma at 37° C. and 5% CO2 for 3 hours. Dipeptidylpeptidase activity of the plasma was inhibited by a DPP-IV inhibitor (#DPP4, Biotrend).

Molecule | cell viability (Rin-5F cells; different concentrations, CHX 10 μg/ml and 100 μg/ml) | anti-apoptotic effect (Rin-5F cells; in the presence of 1 nM, cycloheximid, serumfree, p<0.01) | stability in human plasma (active GLP, ELISA) (DPP-IV)
CM1: C-terminally elongated dimeric GLP-1 fusion peptide GLP-1 (7-37)-IP2-GLP-1 (7-37) produced by construct #217 | significant (p<0.01) increase of cell viability | significant anti-apoptotic effect | –
GLP-1 (7-37)-IP2-RR-GLP1(7-37) [SEQ ID NO:6] | – | – | significantly stabilized
HAEGTFTSDVSSYLEGQAAKEFIAWLVKGRGRRDFPEEVAIAEELG [SEQ ID NO:8, GLP-1 (7-37)-IP2] | – | – | significantly stabilized
GLP-1 (7-37)-IP2-RR-GLP2 (protein, Description of sequence SEQ ID No 7 (ID7rec, CM2) corresponds to GLP-1(7-37)-IP2-RR-GLP2, 83 aa, 9,4 kD, 83 aa, recombinant) HAEGTFTSDVSSYLEGQAAKEFIAWLVKGRGRRDFPEEVAIAEELGRRHADGSFSDEMSTILDNLATRDFINWLIQTKITDKK | – | – | significantly stabilized
